Source: article PMC10227015, “From a drug repositioning to a structure-based drug design approach to tackle acute lymphoblastic leukemia” (Nature Communications, 2023)

Legend:
[1] = system: CCRF-CEM-CRISPR-sgRNA-dCK− cell line; assay: Proliferation of CCRF-CEM CRISPR-Cas9 cell line deficient for dCK; format: cell-based, human; conditions: dT 200 µM, dC 1 µM
Experimental: CCFR-CEM cells (obtained from O. Hermine laboratory, Paris, France) were grown at 37 °C in RPMI 1640 with L-glutamine, supplemented with 10% heat-inactivated fetal calf serum. The experiments were carried out on 96-well plates under the following conditions: 14,000 cells per well, RPMI 1640 culture medium supplemented with 10% heat-inactivated fetal calf serum, 200 μM of dT, 1 μM of dC and a range of dilutions of each compound ranging from 40 μM to 10 pM, depending on the activity of the compounds (final 0.2% DMSO). Cells were incubated for 72 h under these different conditions and finally, incubated with 10 µl/well of CellTiter-Blue reagent (Promega) for 4 h at 37 °C. The amount of reduced dye formed by metabolically active cells was quantified by its fluorescence measured at 560 nm (excitation) and 590 nm (emission) in a microplate reader (CLARIOstar, BMG Labtech). A blank well without cells was used as a background control. Each experiment was performed at least three times (with technical triplicates) and data are presented as the mean ± SD.
Stable CCRF-CEM-CRISPR-sgRNA-dCK^− cell line was established by lentiviral transduction using purified lentiviral particles (Horizon Discovery) and blasticidin selection (10 µg/ml). […]

[2] = target: T1, MAPKAPK2 (Homo sapiens, UniProt P49137); assay: KINOMEscan competition binding; conditions: OR0642 1 µM; read-out: %Control
T1 construct: purchased Eurofins DiscoverX (KINOMEscan scanEDGE 97)
Experimental: (§1) Kinome profiling was provided by Eurofins DiscoverX Corporation. Determination of the % control activity for 97 kinases was obtained through an active site-directed competition binding assay that quantitatively measure interactions between compound and kinases. OR0642 was used at 1 μM.
(§2) Supplementary Table 3. KINOMEscan™ Profiling of OR0642. Competition binding assay to quantitatively measure interactions between OR0642 (1 µM) and 97 human kinases and disease relevant mutant variants.
(§3) Target Gene Symbol %Control Target Gene Symbol %Control […]

[3] = target: T2, TYK2(JH1domain-catalytic) (Homo sapiens, UniProt P29597); assay: KINOMEscan competition binding; conditions: OR0642 1 µM; read-out: %Control
T2 construct: TYK2(JH1domain-catalytic); purchased Eurofins DiscoverX (KINOMEscan scanEDGE 97)
Experimental: as §1, §2, §3

[4] = target: T3, p38-alpha (Homo sapiens, UniProt Q16539); assay: KINOMEscan competition binding; conditions: OR0642 1 µM; read-out: %Control
T3 construct: purchased Eurofins DiscoverX (KINOMEscan scanEDGE 97)
Experimental: as §1, §2, §3

[5] = target: T4, TSSK1B (Homo sapiens, UniProt Q9BXA7); assay: KINOMEscan competition binding; conditions: OR0642 1 µM; read-out: %Control
T4 construct: purchased Eurofins DiscoverX (KINOMEscan scanEDGE 97)
Experimental: as §1, §2, §3

[6] = target: T5, PLK4 (Homo sapiens, UniProt O00444); assay: KINOMEscan competition binding; conditions: OR0642 1 µM; read-out: %Control
T5 construct: purchased Eurofins DiscoverX (KINOMEscan scanEDGE 97)
Experimental: as §1, §2, §3

[7] = target: T6, JAK2(JH1domain-catalytic) (Homo sapiens, UniProt O60674); assay: KINOMEscan competition binding; conditions: OR0642 1 µM; read-out: %Control
T6 construct: JAK2(JH1domain-catalytic); purchased Eurofins DiscoverX (KINOMEscan scanEDGE 97)
Experimental: as §1, §2, §3

[8] = target: T7, PRKCE (Homo sapiens, UniProt Q02156); assay: KINOMEscan competition binding; conditions: OR0642 1 µM; read-out: %Control
T7 construct: purchased Eurofins DiscoverX (KINOMEscan scanEDGE 97)
Experimental: as §1, §2, §3

[9] = target: T8, ZAP70 (Homo sapiens, UniProt P43403); assay: KINOMEscan competition binding; conditions: OR0642 1 µM; read-out: %Control
T8 construct: purchased Eurofins DiscoverX (KINOMEscan scanEDGE 97)
Experimental: as §1, §2, §3

[10] = target: T9, TIE2 (Homo sapiens, UniProt Q02763); assay: KINOMEscan competition binding; conditions: OR0642 1 µM; read-out: %Control
T9 construct: purchased Eurofins DiscoverX (KINOMEscan scanEDGE 97)
Experimental: as §1, §2, §3

[11] = target: T10, p38-beta (Homo sapiens, UniProt Q15759); assay: KINOMEscan competition binding; conditions: OR0642 1 µM; read-out: %Control
T10 construct: purchased Eurofins DiscoverX (KINOMEscan scanEDGE 97)
Experimental: as §1, §2, §3

[12] = target: T11, PIM2 (Homo sapiens, UniProt Q9P1W9); assay: KINOMEscan competition binding; conditions: OR0642 1 µM; read-out: %Control
T11 construct: purchased Eurofins DiscoverX (KINOMEscan scanEDGE 97)
Experimental: as §1, §2, §3

[13] = target: T12, ULK2 (Homo sapiens, UniProt Q8IYT8); assay: KINOMEscan competition binding; conditions: OR0642 1 µM; read-out: %Control
T12 construct: purchased Eurofins DiscoverX (KINOMEscan scanEDGE 97)
Experimental: as §1, §2, §3

[14] = target: T13, PKAC-alpha (Homo sapiens, UniProt P17612); assay: KINOMEscan competition binding; conditions: OR0642 1 µM; read-out: %Control
T13 construct: purchased Eurofins DiscoverX (KINOMEscan scanEDGE 97)
Experimental: as §1, §2, §3

[15] = target: T14, JAK3(JH1domain-catalytic) (Homo sapiens, UniProt P52333); assay: KINOMEscan competition binding; conditions: OR0642 1 µM; read-out: %Control
T14 construct: JAK3(JH1domain-catalytic); purchased Eurofins DiscoverX (KINOMEscan scanEDGE 97)
Experimental: as §1, §2, §3

[16] = target: T15, VEGFR2 (Homo sapiens, UniProt P35968); assay: KINOMEscan competition binding; conditions: OR0642 1 µM; read-out: %Control
T15 construct: purchased Eurofins DiscoverX (KINOMEscan scanEDGE 97)
Experimental: as §1, §2, §3

[17] = target: T16, PLK1 (Homo sapiens, UniProt P53350); assay: KINOMEscan competition binding; conditions: OR0642 1 µM; read-out: %Control
T16 construct: purchased Eurofins DiscoverX (KINOMEscan scanEDGE 97)
Experimental: as §1, §2, §3

[18] = target: T17, RET (Homo sapiens, UniProt P07949); assay: KINOMEscan competition binding; conditions: OR0642 1 µM; read-out: %Control
T17 construct: purchased Eurofins DiscoverX (KINOMEscan scanEDGE 97)
Experimental: as §1, §2, §3

[19] = target: T18, RAF1 (Homo sapiens, UniProt P04049); assay: KINOMEscan competition binding; conditions: OR0642 1 µM; read-out: %Control
T18 construct: purchased Eurofins DiscoverX (KINOMEscan scanEDGE 97)
Experimental: as §1, §2, §3

[20] = target: T19, SNARK (Homo sapiens, UniProt Q9H093); assay: KINOMEscan competition binding; conditions: OR0642 1 µM; read-out: %Control
T19 construct: purchased Eurofins DiscoverX (KINOMEscan scanEDGE 97)
Experimental: as §1, §2, §3

[21] = target: T20, RSK2(Kin.Dom.1-N-terminal) (Homo sapiens, UniProt P51812); assay: KINOMEscan competition binding; conditions: OR0642 1 µM; read-out: %Control
T20 construct: RSK2(Kin.Dom.1-N-terminal); purchased Eurofins DiscoverX (KINOMEscan scanEDGE 97)
Experimental: as §1, §2, §3

[22] = target: T21, YANK3 (Homo sapiens, UniProt Q86UX6); assay: KINOMEscan competition binding; conditions: OR0642 1 µM; read-out: %Control
T21 construct: purchased Eurofins DiscoverX (KINOMEscan scanEDGE 97)
Experimental: as §1, §2, §3

[23] = target: T22, ABL1-nonphosphorylated (Homo sapiens, UniProt P00519); assay: KINOMEscan competition binding; conditions: OR0642 1 µM; read-out: %Control
T22 construct: purchased Eurofins DiscoverX (KINOMEscan scanEDGE 97)
Experimental: as §1, §2, §3

[24] = target: T23, TGFBR1 (Homo sapiens, UniProt P36897); assay: KINOMEscan competition binding; conditions: OR0642 1 µM; read-out: %Control
T23 construct: purchased Eurofins DiscoverX (KINOMEscan scanEDGE 97)
Experimental: as §1, §2, §3

[25] = target: T24, ROCK2 (Homo sapiens, UniProt O75116); assay: KINOMEscan competition binding; conditions: OR0642 1 µM; read-out: %Control
T24 construct: purchased Eurofins DiscoverX (KINOMEscan scanEDGE 97)
Experimental: as §1, §2, §3

[26] = target: T25, SRPK3 (Homo sapiens, UniProt Q9UPE1); assay: KINOMEscan competition binding; conditions: OR0642 1 µM; read-out: %Control
T25 construct: purchased Eurofins DiscoverX (KINOMEscan scanEDGE 97)
Experimental: as §1, §2, §3

[27] = target: T26, PIM3 (Homo sapiens, UniProt Q86V86); assay: KINOMEscan competition binding; conditions: OR0642 1 µM; read-out: %Control
T26 construct: purchased Eurofins DiscoverX (KINOMEscan scanEDGE 97)
Experimental: as §1, §2, §3

[28] = target: T27, TRKA (Homo sapiens, UniProt P04629); assay: KINOMEscan competition binding; conditions: OR0642 1 µM; read-out: %Control
T27 construct: purchased Eurofins DiscoverX (KINOMEscan scanEDGE 97)
Experimental: as §1, §2, §3

T7 sequence (Q02156 whole entry): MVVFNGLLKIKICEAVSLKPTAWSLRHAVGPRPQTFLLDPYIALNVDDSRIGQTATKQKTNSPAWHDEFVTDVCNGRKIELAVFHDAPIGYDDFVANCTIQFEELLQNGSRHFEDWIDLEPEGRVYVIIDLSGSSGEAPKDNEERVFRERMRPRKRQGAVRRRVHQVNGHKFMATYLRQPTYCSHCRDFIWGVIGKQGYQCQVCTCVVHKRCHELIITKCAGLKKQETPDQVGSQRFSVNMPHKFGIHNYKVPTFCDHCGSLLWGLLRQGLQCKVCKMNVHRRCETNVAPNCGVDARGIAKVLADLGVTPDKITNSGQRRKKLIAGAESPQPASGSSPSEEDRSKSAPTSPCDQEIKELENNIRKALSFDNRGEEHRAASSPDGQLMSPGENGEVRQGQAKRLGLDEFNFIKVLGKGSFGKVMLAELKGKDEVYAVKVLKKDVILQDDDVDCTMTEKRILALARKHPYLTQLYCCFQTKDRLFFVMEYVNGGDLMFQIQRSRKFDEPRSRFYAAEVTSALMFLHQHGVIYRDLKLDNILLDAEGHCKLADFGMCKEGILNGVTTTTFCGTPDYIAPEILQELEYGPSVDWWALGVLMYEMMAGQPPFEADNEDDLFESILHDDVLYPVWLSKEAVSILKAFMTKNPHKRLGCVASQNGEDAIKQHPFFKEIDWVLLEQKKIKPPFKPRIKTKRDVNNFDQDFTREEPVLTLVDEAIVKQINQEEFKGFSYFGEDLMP
T4 sequence (Q9BXA7 whole entry): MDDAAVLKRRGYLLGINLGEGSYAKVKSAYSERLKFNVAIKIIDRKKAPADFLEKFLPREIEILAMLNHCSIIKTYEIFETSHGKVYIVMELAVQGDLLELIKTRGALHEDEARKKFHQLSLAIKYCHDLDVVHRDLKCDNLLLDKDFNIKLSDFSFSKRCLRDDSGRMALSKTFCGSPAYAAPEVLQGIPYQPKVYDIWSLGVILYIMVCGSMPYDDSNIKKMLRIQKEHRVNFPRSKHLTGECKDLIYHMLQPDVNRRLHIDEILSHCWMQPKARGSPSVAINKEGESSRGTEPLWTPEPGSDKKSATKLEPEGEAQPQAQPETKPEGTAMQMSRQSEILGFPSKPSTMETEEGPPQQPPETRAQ
T19 sequence (Q9H093 whole entry): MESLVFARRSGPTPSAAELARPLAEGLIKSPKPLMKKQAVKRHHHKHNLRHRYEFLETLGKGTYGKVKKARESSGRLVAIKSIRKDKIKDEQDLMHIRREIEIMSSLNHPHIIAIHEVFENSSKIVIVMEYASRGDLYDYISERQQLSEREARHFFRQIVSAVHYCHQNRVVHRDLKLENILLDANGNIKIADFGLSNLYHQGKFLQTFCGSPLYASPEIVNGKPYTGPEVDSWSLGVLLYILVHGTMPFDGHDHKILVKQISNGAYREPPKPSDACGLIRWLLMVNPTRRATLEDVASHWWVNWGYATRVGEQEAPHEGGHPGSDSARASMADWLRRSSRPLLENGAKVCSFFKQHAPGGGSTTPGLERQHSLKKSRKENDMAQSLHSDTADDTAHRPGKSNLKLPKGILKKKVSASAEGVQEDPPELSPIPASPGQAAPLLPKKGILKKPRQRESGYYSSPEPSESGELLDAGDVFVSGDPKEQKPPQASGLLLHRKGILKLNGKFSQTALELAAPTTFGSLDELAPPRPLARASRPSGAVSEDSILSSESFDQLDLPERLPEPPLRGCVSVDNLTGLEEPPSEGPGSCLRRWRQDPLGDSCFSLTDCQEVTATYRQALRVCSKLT
T5 sequence (O00444 whole entry): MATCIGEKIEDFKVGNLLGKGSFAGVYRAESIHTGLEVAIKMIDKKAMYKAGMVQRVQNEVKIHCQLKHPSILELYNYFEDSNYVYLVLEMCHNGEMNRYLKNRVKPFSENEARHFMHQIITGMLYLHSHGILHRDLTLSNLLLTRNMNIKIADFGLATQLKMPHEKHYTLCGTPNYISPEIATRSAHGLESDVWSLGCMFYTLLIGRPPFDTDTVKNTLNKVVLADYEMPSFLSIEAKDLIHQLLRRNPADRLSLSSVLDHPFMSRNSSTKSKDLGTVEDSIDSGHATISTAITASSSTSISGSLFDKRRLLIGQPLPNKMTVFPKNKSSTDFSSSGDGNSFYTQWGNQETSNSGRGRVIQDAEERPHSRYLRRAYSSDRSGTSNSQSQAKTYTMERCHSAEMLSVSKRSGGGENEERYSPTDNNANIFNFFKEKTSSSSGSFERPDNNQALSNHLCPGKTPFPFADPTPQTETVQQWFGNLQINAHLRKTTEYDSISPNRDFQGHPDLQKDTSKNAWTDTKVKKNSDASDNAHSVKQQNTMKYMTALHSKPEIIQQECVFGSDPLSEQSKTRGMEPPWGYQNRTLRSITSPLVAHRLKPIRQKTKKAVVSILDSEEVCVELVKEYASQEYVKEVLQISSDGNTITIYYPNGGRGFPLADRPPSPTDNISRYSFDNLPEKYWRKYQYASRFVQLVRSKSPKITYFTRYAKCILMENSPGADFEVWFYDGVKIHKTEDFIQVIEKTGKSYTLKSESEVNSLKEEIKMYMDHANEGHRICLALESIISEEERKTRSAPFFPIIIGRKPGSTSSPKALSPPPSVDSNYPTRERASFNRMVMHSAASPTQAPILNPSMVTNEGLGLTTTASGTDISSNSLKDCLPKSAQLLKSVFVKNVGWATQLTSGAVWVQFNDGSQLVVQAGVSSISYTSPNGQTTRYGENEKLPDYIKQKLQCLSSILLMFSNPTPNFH
T11 sequence (Q9P1W9 whole entry): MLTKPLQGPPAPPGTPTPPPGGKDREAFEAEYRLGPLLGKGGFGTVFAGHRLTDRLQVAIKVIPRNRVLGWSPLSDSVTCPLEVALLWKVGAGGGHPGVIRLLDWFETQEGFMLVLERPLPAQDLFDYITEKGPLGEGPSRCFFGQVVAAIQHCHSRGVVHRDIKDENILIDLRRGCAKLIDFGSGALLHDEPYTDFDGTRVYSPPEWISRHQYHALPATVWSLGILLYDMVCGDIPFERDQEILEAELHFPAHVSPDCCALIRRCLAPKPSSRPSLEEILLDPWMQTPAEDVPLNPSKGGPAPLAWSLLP
T2 sequence (P29597 871-1187 limits assumed): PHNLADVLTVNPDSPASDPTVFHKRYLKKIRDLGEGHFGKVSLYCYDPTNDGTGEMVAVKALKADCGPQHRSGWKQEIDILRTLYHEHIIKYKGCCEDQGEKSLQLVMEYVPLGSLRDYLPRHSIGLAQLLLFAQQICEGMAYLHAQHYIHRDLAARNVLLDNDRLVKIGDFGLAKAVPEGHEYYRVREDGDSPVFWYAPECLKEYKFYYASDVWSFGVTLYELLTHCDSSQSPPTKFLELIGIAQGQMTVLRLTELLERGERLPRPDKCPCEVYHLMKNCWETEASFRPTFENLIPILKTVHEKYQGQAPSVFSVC
T20 sequence (P51812 1-397 limits assumed): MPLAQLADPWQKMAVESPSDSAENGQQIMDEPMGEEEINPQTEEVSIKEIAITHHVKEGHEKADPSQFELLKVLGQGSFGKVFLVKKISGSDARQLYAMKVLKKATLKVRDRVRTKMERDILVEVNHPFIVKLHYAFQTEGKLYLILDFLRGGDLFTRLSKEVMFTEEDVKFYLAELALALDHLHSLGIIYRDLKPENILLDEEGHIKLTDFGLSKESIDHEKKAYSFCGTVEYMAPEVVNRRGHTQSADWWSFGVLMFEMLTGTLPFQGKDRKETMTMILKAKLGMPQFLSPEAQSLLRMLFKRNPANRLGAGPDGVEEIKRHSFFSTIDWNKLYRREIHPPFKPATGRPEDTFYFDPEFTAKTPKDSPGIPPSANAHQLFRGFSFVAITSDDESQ
T14 sequence (P52333 812-1124 limits assumed): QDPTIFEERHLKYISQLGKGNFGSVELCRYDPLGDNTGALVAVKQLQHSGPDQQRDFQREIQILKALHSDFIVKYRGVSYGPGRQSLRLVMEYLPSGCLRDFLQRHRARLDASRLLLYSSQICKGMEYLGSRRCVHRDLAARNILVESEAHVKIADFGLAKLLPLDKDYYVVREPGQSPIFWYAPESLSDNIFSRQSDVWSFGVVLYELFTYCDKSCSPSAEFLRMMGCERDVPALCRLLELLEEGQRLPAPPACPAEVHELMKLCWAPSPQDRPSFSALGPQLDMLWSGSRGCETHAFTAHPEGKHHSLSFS
T25 sequence (Q9UPE1 whole entry): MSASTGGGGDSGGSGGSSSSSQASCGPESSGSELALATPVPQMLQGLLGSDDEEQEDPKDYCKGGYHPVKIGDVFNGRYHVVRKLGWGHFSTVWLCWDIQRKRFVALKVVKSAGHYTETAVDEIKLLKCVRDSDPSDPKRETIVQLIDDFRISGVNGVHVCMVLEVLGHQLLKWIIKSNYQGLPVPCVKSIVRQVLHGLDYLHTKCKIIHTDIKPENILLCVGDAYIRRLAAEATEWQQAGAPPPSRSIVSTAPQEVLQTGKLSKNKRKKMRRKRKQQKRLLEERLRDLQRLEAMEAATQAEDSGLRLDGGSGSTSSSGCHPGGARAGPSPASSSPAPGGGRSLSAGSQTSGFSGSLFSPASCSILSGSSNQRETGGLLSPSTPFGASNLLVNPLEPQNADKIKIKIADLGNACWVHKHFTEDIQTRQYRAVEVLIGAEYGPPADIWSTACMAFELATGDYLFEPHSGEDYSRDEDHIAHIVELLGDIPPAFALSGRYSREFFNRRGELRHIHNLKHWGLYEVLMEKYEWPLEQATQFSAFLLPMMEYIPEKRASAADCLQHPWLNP

## CCCN(c1nc(-c2nc(N)cc(N)n2)cs1)c1cc(-c2ccc(S(=O)(=O)N3CCN(C)CC3)cc2C(F)(F)F)ccc1C [OR0642]
[1]
  effect on cell proliferation: did not affect cell proliferation
[2]
  remaining binding at 1 µM: 100%
[3]
  remaining binding at 1 µM: 100%
[4]
  remaining binding at 1 µM: 100%
[5]
  remaining binding at 1 µM: 100%
[6]
  remaining binding at 1 µM: 81%
[7]
  remaining binding at 1 µM: 100%
[8]
  remaining binding at 1 µM: 100%
[9]
  remaining binding at 1 µM: 97%
[10]
  remaining binding at 1 µM: 94%
[11]
  remaining binding at 1 µM: 91%
[12]
  remaining binding at 1 µM: 100%
[13]
  remaining binding at 1 µM: 95%
[14]
  remaining binding at 1 µM: 85%
[15]
  remaining binding at 1 µM: 97%
[16]
  remaining binding at 1 µM: 100%
[17]
  remaining binding at 1 µM: 90%
[18]
  remaining binding at 1 µM: 100%
[19]
  remaining binding at 1 µM: 88%
[20]
  remaining binding at 1 µM: 88%
[21]
  remaining binding at 1 µM: 100%
[22]
  remaining binding at 1 µM: 97%
[23]
  remaining binding at 1 µM: 94%
[24]
  remaining binding at 1 µM: 98%
[25]
  remaining binding at 1 µM: 99%
[26]
  remaining binding at 1 µM: 93%
[27]
  remaining binding at 1 µM: 100%
[28]
  remaining binding at 1 µM: 100%
